In brackets after ≈: the same amount, converted by molar mass.
Columns and labels:
[1] = system: Seratia fonticola clinical isolate (1); test: MIC, clinical isolates; assay type: cell-based, Serratia fonticola; conditions: Table S1, RKI 517/16
Method: The strains that were used in this study (Table 2 and Table S1) were cultivated at 37 °C in cation-adjusted Mueller–Hinton broth (CAMB) in Erlenmeyer flasks, or on the same medium with agar in Petri dishes. Exceptionally, Mycobacterium smegmatis was cultivated at 37 °C in brain heart infusion (BHI) medium that was supplemented with 1% Tween-80 in Erlenmeyer flasks, or on the same medium lacking detergent but with agar in Petri dishes. Strains listed with Robert Koch Institute (RKI) strain numbers are clinical isolates from the RKI strain collection originating from hospitalized patients in Germany. The remaining strains originated from the Sanofi strain collection and they were originally purchased from the American Type Culture Collection or the German Collection of Microorganisms and Cell Cultures. Meropenem/colistin-resistant strains were maintained, as described above, with the appropriate antibiotic added at levels below the minimal inhibitory concentration (MIC).
The MIC values were determined in 384-well microtiter plates with an assay volume of 20 µL. […] The growth of M. smegmatis was measured using the BacTiter-Glo luminescence test system (Promega, Madison, WI, USA). The growth of the other species was determined by visual inspection of the microtiter plate and turbidimetry based on the optical density at 600 nm (OD600). […]

P. aeruginosa ATCC 27853 = test: Checkerboard assay EtDip with colistin; assay type: cell-based, Pseudomonas aeruginosa; conditions: CAMB and + 150 mM NaCl; not in the presence of CaCl2
Method: The interactions between pairs of compounds were analyzed using checkerboard assays in a 384-well microtiter plate with an assay volume of 20 µL. Immediately before the test runs, the bacterial cultures were diluted in CAMB to a density of 5 × 10^5 cells/mL. The two compounds for combinatorial testing were arrayed as 10-fold concentrated serial dilutions with respect to the final concentration, vertically for one compound and horizontally for the other, in the same 384-well microplate. Subsequently, we transferred 2-µL aliquots to new 384-well microtiter plates, and growth inhibition in each well was determined, as described for the MIC values above. Fractional inhibitory concentration (FIC) and FICindex values for each combination were calculated using the following formulae, where a
FICindex ≤0.5 indicates synergy and a FICindex >4 indicates antagonism.
FIC for compound A = MIC of compound A in combination/MIC of compound A
FIC for compound B = MIC of compound B in combination/MIC of compound B

Row | Molecule | MIC [1] | interaction with colistin (FICindex) (P. aeruginosa ATCC 27853)
1 | C[C@@H](O)[C@H]1C(=O)N2C(C(=O)O)=C(S[C@@H]3CN[C@H](C(=O)N(C)C)C3)[C@H](C)[C@H]12 [MEM, meropenem] | 32 mg/L (≈ 83.4 µM) | –
2 | QFNMQGGGSPRQGFDVNANARFPIWQSQNARNSVHGTASYAQHLGGPYGNSRPNFGGGLQFT [EtDip, diptericin-like peptide of Eristalis tenax] | – | Synergistic interactions
